In patent US11420969B2 (Exonate Limited, priority 2017, dated 2022) one finds IC50 data, which are given here for 17 compounds.

The target of data set [1] is T1, CYP2C19 (Homo sapiens, UniProt P33261).
T1 construct: from tissue; host or cells: human liver microsomes
As to the kind of experiment: CYP inhibition assay, human liver microsomes, substrate S-mephenytoin. The data set is classed as in vitro ADME. As for the experimental part:
(§1) 2 μL of test compound/Positive Inhibitor working solutions is then added to the reaction plate (2 μL/well). For control, 2 μL of Acetonitrile (ACN) containing DMSO (without inhibitor) is added to the reaction plate. 20 μL of substrate pool is added to all the wells of the reaction plate. The samples are mixed in a vortexer and pre-incubated at 37° C. for 20 min. The NADPH solution is pre-warmed at 37° C. for 5 min. 20 μL of pre-warmed NADPH solution is added to the reaction plate and then incubated at 37° C. for 10 min. The reaction is terminated by adding cold ACN (200 μL/well) to the reaction mixture and centrifuging at 4,000 rpm for 20 minutes. After centrifugation, supernatant is separated and analyzed by LC-MS/MS.
(§2) % inhibition and IC50 are calculated using Graphpad Prism software.

Data set [2] addresses T2, CYP2C9 (Homo sapiens, UniProt P11712).
T2 construct: from tissue; host or cells: human liver microsomes
The experiment in a line: CYP inhibition assay, human liver microsomes, substrate diclofenac. The data set is classed as in vitro ADME. The protocol:
as §1, §2

Data set [3] concerns the target T3, CYP3A4 (Homo sapiens, UniProt P08684).
T3 construct: from tissue; host or cells: human liver microsomes
As to the kind of experiment: CYP inhibition assay, human liver microsomes, substrate midazolam. The data set is classed as in vitro ADME. As for the experimental part: as §1, §2

Data set [4] deals with T4, CYP1A2 (Homo sapiens, UniProt P05177).
T4 construct: from tissue; host or cells: human liver microsomes
T4 sequence (P05177 1-516): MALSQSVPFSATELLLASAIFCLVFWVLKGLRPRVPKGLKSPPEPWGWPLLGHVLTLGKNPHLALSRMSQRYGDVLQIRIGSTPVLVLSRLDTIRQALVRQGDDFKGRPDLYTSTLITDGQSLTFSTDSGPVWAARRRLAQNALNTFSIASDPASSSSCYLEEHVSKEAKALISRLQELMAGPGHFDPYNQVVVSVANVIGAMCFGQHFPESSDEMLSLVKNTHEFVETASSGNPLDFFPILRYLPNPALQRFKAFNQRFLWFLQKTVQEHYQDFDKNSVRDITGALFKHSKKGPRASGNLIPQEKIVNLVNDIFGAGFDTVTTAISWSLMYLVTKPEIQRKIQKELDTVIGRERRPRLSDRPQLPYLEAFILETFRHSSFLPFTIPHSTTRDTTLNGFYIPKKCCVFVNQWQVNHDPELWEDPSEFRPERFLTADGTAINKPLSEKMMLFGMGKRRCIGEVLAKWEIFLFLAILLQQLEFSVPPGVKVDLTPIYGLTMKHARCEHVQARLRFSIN
As to the kind of experiment: CYP inhibition assay, human liver microsomes, substrate tacrine. The data set is classed as in vitro ADME. As for the experimental part: as §1, §2

The target in data set [5] is T5, CYP2D6 (Homo sapiens, UniProt P10635).
T5 construct: from tissue; host or cells: human liver microsomes
As to the kind of experiment: biochemical. The data set is classed as in vitro ADME. The protocol: 158 μL of Human Liver Microsomes working stock solution is added to a reaction plate (0.253 mg/mL, 158 μL/well). 2 μL of test compound/Positive Inhibitor working solutions is then added to the reaction plate (2 μL/well). For control, 2 μL of Acetonitrile (ACN) containing DMSO (without inhibitor) is added to the reaction plate. 20 μL of substrate pool is added to all the wells of the reaction plate. The samples are mixed in a vortexer and pre-incubated at 37° C. for 20 min. The NADPH solution is pre-warmed at 37° C. for 5 min. 20 μL of pre-warmed NADPH solution is added to the reaction plate and then incubated at 37° C. for 10 min. The reaction is terminated by adding cold ACN (200 μL/well) to the reaction mixture and centrifuging at 4,000 rpm for 20 minutes. After centrifugation, supernatant is separated and analyzed by LC-MS/MS.
as §2

The target in data set [6] is SRPK1 (Homo sapiens, UniProt Q96SB4). The experiment in a line: In vitro SRPK1 assay (Kinase-Glo). The data set is classed as biochemical.
Setting [7] is: human liver microsomes, 10 min incubation, LC-MS/MS, read-out: CYP Inhibition Activity (IC50/nM) CYP2C19.
Setting [8] is: human liver microsomes, 10 min incubation, LC-MS/MS, read-out: CYP Inhibition Activity (IC50/nM) CYP2C9.
[9] abbreviates: human liver microsomes, 10 min incubation, LC-MS/MS, read-out: CYP Inhibition Activity (IC50/nM) CYP3A4.
Where [10] appears, read: human liver microsomes, 10 min incubation, LC-MS/MS, read-out: CYP Inhibition Activity (IC50/nM) CYP1A2.

Like-named read-outs stand apart in the source and are kept apart here.

T5 sequence (P10635 whole entry): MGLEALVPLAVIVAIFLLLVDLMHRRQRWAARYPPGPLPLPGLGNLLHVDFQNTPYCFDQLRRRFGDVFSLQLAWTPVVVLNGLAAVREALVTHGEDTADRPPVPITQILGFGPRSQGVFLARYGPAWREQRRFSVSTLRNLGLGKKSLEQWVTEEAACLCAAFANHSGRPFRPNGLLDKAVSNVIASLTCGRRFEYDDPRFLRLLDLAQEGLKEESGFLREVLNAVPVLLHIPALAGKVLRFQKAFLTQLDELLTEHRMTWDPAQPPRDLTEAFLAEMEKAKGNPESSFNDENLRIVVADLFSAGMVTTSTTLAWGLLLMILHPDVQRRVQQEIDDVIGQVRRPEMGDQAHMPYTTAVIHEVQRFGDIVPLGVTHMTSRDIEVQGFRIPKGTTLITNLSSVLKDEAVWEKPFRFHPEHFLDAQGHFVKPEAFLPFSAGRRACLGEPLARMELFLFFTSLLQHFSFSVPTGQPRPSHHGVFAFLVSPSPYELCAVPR
Sequence of SRPK1 (Q96SB4 whole entry, species assumed): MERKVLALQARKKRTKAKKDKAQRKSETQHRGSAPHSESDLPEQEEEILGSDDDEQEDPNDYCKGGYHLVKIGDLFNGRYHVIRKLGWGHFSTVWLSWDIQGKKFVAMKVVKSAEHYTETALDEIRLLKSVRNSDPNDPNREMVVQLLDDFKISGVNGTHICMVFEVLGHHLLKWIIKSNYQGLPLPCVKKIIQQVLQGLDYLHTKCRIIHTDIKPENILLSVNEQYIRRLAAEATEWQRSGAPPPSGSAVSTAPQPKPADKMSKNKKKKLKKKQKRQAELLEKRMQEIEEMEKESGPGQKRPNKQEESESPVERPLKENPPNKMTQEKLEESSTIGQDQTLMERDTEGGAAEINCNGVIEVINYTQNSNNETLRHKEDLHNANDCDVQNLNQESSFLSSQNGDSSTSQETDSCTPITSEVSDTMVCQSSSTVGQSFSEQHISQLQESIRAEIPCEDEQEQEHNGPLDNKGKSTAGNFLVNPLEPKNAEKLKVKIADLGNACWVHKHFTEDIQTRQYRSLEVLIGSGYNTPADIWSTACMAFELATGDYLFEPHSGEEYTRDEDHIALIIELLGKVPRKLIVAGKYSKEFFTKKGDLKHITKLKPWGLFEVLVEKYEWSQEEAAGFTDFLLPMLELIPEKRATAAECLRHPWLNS
T2 sequence (P11712 whole entry): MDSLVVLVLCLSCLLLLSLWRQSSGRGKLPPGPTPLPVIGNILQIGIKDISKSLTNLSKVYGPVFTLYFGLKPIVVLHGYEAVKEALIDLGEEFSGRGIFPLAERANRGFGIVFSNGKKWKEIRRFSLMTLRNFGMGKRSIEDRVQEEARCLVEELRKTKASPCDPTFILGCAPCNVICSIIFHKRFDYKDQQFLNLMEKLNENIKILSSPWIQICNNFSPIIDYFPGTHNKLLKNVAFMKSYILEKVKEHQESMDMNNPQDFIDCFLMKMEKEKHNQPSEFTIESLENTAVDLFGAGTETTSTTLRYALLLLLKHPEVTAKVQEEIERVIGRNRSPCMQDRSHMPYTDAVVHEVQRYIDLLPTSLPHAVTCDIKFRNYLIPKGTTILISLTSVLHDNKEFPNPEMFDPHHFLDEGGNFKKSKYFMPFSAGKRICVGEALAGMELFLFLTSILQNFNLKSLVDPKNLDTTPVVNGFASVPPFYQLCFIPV
T1 sequence (P33261 whole entry): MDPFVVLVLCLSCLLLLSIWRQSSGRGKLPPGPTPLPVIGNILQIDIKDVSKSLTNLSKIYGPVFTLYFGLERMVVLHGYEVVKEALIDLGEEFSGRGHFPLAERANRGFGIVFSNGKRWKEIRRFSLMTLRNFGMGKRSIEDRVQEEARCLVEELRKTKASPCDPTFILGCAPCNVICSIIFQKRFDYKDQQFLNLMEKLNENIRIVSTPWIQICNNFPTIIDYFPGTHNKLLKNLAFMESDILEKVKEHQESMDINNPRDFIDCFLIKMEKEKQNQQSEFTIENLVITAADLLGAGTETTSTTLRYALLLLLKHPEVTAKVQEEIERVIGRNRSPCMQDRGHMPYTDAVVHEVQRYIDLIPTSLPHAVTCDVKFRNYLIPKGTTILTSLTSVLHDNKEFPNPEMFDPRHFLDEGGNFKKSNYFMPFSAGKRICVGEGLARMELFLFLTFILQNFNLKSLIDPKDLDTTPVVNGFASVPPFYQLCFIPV
T3 sequence (P08684 whole entry): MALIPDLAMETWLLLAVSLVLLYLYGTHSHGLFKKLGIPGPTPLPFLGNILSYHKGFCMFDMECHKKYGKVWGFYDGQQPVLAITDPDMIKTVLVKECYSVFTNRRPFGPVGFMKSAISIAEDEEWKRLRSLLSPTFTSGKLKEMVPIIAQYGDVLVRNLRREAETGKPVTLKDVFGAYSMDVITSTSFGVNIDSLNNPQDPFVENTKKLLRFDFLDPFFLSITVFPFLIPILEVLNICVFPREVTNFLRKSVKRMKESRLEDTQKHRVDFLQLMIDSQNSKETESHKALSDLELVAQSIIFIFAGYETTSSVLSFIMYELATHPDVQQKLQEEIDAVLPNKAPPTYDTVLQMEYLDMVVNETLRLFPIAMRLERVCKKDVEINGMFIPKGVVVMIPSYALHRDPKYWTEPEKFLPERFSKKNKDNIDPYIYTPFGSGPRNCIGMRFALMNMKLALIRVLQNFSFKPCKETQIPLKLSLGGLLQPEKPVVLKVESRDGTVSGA

In the case of “5-(pyridin-4-yl)-N-(2-(5-(thiazol-2-ylmethyl)piperazin-1-yl)-5-(trifluoromethyl)phenyl)furan-2-carboxamide [Reference Example 5, reference compound]”, the IC50 came to 230 nM in data set [1] (microsomes); 250 nM in data set [2] (microsomes); 610 nM in data set [3] (microsomes); 15200 nM in data set [4] (microsomes); 200 nM in data set [5] (microsomes).
In the case of `CC1(O)CCCN(c2ccc(C(F)(F)F)cc2NC(=O)c2ccc(-c3ccncc3)o2)CC1` (racemic) [Example 37, N-(2-(4-hydroxy-4-methylazepan-1-yl)-5-(trifluoromethyl)phenyl)-5-(pyridin-4-yl)furan-2-carboxamide], the IC50 in data set [1] (setting [7]) stood at 1230 nM; in data set [2] (setting [8]) it was 610 nM; in data set [3] (setting [9]) it was 960 nM; in data set [6] it was 17 nM; in data set [4] (setting [10]) it was 24100 nM; in data set [5], 240 nM.
As to `CC1(O)CCCN(c2ccc(Cl)cc2NC(=O)c2ccc(-c3ccncc3)o2)CC1` (racemic) [Example 38, N-(5-chloro-2-(4-hydroxy-4-methylazepan-1-yl)phenyl)-5-(pyridin-4-yl)furan-2-carboxamide], the IC50 came to 7500 nM in data set [1] (setting [7]); 7670 nM in data set [2] (setting [8]); 10000 nM in data set [3] (setting [9]); 4 nM in data set [6]; 21700 nM in data set [4] (setting [10]); 15400 nM in data set [5].
As to `CC1(O)CCCN(c2ccc(C3CC3)cc2NC(=O)c2ccc(-c3ccncc3)o2)CC1` (racemic) [Example 39, N-(5-cyclopropyl-2-(4-hydroxy-4-methylazepan-1-yl)phenyl)-5-(pyridin-4-yl)-furan-2-carboxamide], the IC50 in data set [2] (setting [8]) is 11500 nM; in data set [3] (setting [9]), 18300 nM; in data set [6], 35 nM; in data set [4] (setting [10]), 17600 nM; in data set [5], > 30000 nM.
Consider `CC1(O)CCCN(c2ccc(C(F)(F)F)cc2NC(=O)c2ccc(C3CCOCC3)o2)CC1` (racemic) [Example 40, N-(2-(4-hydroxy-4-methylazepan-1-yl)-5-(trifluoromethyl)phenyl)-5-(tetrahydro-2H-pyran-4-yl)furan-2-carboxamide], for which the IC50 in data set [1] (setting [7]) is 10400 nM; in data set [2] (setting [8]), 8450 nM; in data set [3] (setting [9]), 10900 nM; in data set [6] it was 1.6 nM; in data set [4] (setting [10]), > 30000 nM; in data set [5] it was 26900 nM.
For the compound `CC1(O)CCCN(c2ccc(Cl)cc2NC(=O)c2ccc(C3CCOCC3)o2)CC1` (racemic) [Example 41, N-(5-chloro-2-(4-hydroxy-4-methylazepan-1-yl)phenyl)-5-(tetrahydro-2H-pyran-4-yl)furan-2-carboxamide], the IC50 in data set [1] (setting [7]) is 370 nM; in data set [2] (setting [8]), 810 nM; in data set [3] (setting [9]), 2610 nM; in data set [6] it was 3 nM; in data set [4] (setting [10]), 2660 nM; in data set [5], 380 nM.
Turning to `CC1(O)CCCN(c2ccc(C3CC3)cc2NC(=O)c2ccc(C3CCOCC3)o2)CC1` (racemic) [Example 42, N-(5-cyclopropyl-2-(4-hydroxy-4-methylazepan-1-yl)phenyl)-5-(tetrahydro-2H-pyran-4-yl)furan-2-carboxamide], the IC50 in data set [1] (setting [7]) is 530 nM; in data set [2] (setting [8]) it was 610 nM; in data set [3] (setting [9]), 10300 nM; in data set [6], 13 nM; in data set [4] (setting [10]), > 30000 nM; in data set [5], 16600 nM.
`O=C(Nc1cc(C(F)(F)F)ccc1N1CCCC(O)CC1)c1ccccn1` (racemic) [Example 43, N-(2-(4-hydroxyazepan-1-yl)-5-(trifluoromethyl)-phenyl)picolinamide] registered an IC50 in data set [6] of 3.4 nM.
As for `O=C(Nc1cc(C(F)(F)F)ccc1N1CCCC(O)CC1)c1ccc(-c2ccncc2)o1` (racemic) [Example 44, N-(2-(4-hydroxyazepan-1-yl)-5-(trifluoromethyl)-phenyl)-5-(pyridin-4-yl)furan-2-carboxamide], the IC50 amounted to 8570 nM in data set [1] (setting [7]); 11200 nM in data set [2] (setting [8]); 26300 nM in data set [3] (setting [9]); 1.5 nM in data set [6]; 24300 nM in data set [4] (setting [10]); 25300 nM in data set [5].
As to `O=C(Nc1cc(Cl)ccc1N1CCCC(O)CC1)c1ccc(-c2ccncc2)o1` (racemic) [Example 45, N-(5-chloro-2-(4-hydroxyazepan-1-yl)phenyl)-5-(pyridin-4-yl)furan-2-carboxamide], the IC50 in data set [1] (setting [7]) turned out to be 100 nM; in data set [2] (setting [8]) it was 410 nM; in data set [3] (setting [9]) it was 1430 nM; in data set [6] it was 30 nM; in data set [4] (setting [10]), 550 nM; in data set [5], 660 nM.
For the compound `O=C(Nc1cc(C(F)(F)F)ccc1N1CCC(C(=O)O)CC1)c1ccccn1` [Example 30, 1-(2-(picolinamido)-4-(trifluoromethyl)phenyl)-piperidine-4-carboxylic acid], the IC50 in data set [6] was 76 nM.
On to `O=C(Nc1cc(C(F)(F)F)ccc1N1CCC(CO)CC1)c1ccccn1` [Example 31, N-(2-(4-(hydroxymethyl)piperidin-1-yl)-5-(trifluoromethyl)phenyl)picolinamide], for which the IC50 in data set [6] was determined as 41 nM.
For the compound `CC1(CN)CCN(c2ccc(C(F)(F)F)cc2NC(=O)c2ccc(C3CCOCC3)o2)CC1` [Example 81, N-(2-(4-(aminomethyl)-4-methylpiperidin-1-yl)-5-(trifluoromethyl)phenyl)-5-(tetrahydro-2H-pyran-4-yl)furan-2-carboxamide], the IC50 in data set [2] (setting [8]) was 23000 nM; in data set [3] (setting [9]) it was 21200 nM; in data set [6], 2.6 nM; in data set [4] (setting [10]), > 30000 nM; in data set [5] it was 5010 nM.
As to `O=C(Nc1cc(C(F)(F)F)ccc1N1CCN(Cc2ccccn2)CC1)c1ccc(-c2ccncc2)o1` [Reference Example 1, reference compound], the IC50 in data set [1] (setting [7]) was 230 nM; in data set [2], 170 nM; in data set [3] (setting [9]) it was 310 nM; in data set [4] (setting [10]), > 30000 nM; in data set [5] (human liver microsomes, 10 min incubation, LC-MS/MS, read-out: CYP Inhibition Activity (IC50/nM) CYP2D6), 740 nM.
`O=C(Nc1cc(C(F)(F)F)ccc1N1CCN(Cc2ccco2)CC1)c1ccc(-c2ccncc2)o1` [Reference Example 2, N-(2-(4-(furan-2-ylmethyl)piperazin-1-yl)-5-(trifluoromethyl)phenyl)-5-(pyridin-4-yl)furan-2-carboxamide, reference compound]: the IC50 in data set [1] (setting [7]) was determined as 690 nM; in data set [2] (setting [8]), 610 nM; in data set [3] (setting [9]), 1180 nM; in data set [4] (setting [10]) it was 21800 nM; in data set [5] it was 260 nM.
As to `O=C(Nc1cc(C(F)(F)F)ccc1N1CCN(Cc2cc[nH]n2)CC1)c1ccc(C2CCOCC2)o1` [Reference Example 3, N-(2-(4-((1H-pyrazol-3-yl)methyl)piperazin-1-yl)-5-(trifluoromethyl)-phenyl)-5-(tetrahydro-2H-pyran-4-yl)furan-2-carboxamide, reference compound], the IC50 in data set [1] (setting [7]) was 610 nM; in data set [2] (setting [8]), 230 nM; in data set [3] (setting [9]), 4160 nM; in data set [4] (setting [10]), > 30000 nM; in data set [5], 7080 nM.
As to `O=C(Nc1cc(C(F)(F)F)ccc1N1CCN(Cc2cocn2)CC1)c1ccc(-c2ccncc2)o1` [Reference Example 4, N-(2-(4-(oxazol-4-ylmethyl)piperazin-1-yl)-5-(trifluoromethyl)phenyl)-5-(pyridin-4-yl)furan-2-carboxamide, reference compound], the IC50 in data set [1] (setting [7]) was 290 nM; in data set [2] (setting [8]) it was 170 nM; in data set [3] (setting [9]), 830 nM; in data set [4] (setting [10]), > 30000 nM; in data set [5] it was 550 nM.
